Test results reported in patent US11959096B2, “Methods for selective inhibition of pluripotent stem cells” (THE MEDICAL COLLEGE OF WISCONSIN, INC., priority 2014, dated 2024).

Assays:
[1] = tested on: confluent hiPSC (DF6-9-9T); experiment: Bright field imaging of cell morphology; type: cell-based, human
Description: In Vitro Toxicity Assays: Treatment with small molecules or glucose deprivation was initiated in hESC or hiPSC at 24 and 96 h post-plating and in vitro toxicity assays were performed at specified treatment endpoints 24-96 hours after treatment initiation. […] Neutral red assays for cell viability were performed as previously described. In vitro cell death was determined using SYTOX® Green nucleic acid stain (Life Technologies). Briefly, cells were incubated in 5 μM SYTOX® Green for 30 minutes at 37° C. in a humidified cell incubator with 5% CO2. Percent cell viability was determined by normalizing to replicate cells incubated with 120 μM digitonin (Sigma-Aldrich) and 5 μM SYTOX® Green. Imaging of cell viability was performed using Live/Dead® Viability/Cytotoxicity Kit, for mammalian cells (Life Technologies). Cells were stained for 20 minutes at room temperature with 4 μM Calcein AM to detect viable cells and 2 μM Ethidium Homodimer 1 to detect cells with compromised membranes. Representative images of alterations in cell morphology were acquired on confluent hPSC 24-72 hours after treatment initiation. Imaging was performed with a Nikon Ti-U inverted microscope.

[2] = tested on: day 10 cardiomyocytes derived from hiPSC (DF6-9-9T); experiment: Characterization of cardiomyocytes after STF-31 (contractility, flow cytometry, immunofluorescence, qPCR); type: cell-based, human
Description: Quantitative-real time PCR for TNNI3, Troponin T2 (TNNT2), and Homeobox protein Nkx-2.5 (NKX2-5) was performed as previously described using Taqman® Assays […] Cells were then fixed with 4% paraformaldehyde, permeabilized with 0.2% Triton-X, incubated with primary antibody for Troponin T (TNNT2) (Abcam: ab8295) overnight at 4° C. Cells were then incubated in secondary antibody goat anti-mouse IgG1-Alexa 568 (Life Tech: A-21124) and nuclei were detected with Hoechst 33342 (Life Tech: H21492). Cells were imaged with a Nikon Ti-U inverted microscope and Nikon Eclipse 90i confocal microscope.

human fibroblasts = experiment: Neutral red viability assay in fibroblasts; type: cell-based; conditions: 24 hour treatment, 100 μM
sub-confluent hiPSC [3] = experiment: Glucose uptake assay ([3H]2-deoxyglucose); type: cell-based, human
Description: For 1 hour treatment, cells were placed in Krebs-Ringer Hepes (KRH) containing treatment at 37° C. in a humidified cell incubator with 5% CO2. For 15, 18, and 24 hour treatments, cells were treated in E8 medium for 14, 17, and 23 hours, respectively, at which point media was changed to KRH buffer containing specific treatment for 1 hour. After specified treatment time, glucose uptake was performed with 0.5 μCi [^3H]2-deoxyglucose for 5 min at 37° C. as previously described. Uptake data were normalized to protein concentration measured with Lowry method.

sub-confluent hiPSC [4] = experiment: Immunoblot analysis of p-AMPK, AMPK, cleaved caspase-3 and -9; type: cell-based, human; conditions: 2.5 μM STF-31, 30 μM WZB117
Description: Immunoblot Analysis: Non-adherent cells were collected by centrifugation, adherent cells were washed once with d-PBS and lysed in Laemmli buffer, combined with non-adherent cell pellet, and heated at 95° C. for 5 minutes. Protein concentration was measured using the Qubit protein assay (Life Technologies). 25 μg of total protein was separated by SDS-PAGE, transferred to nitrocellulose membrane (GE Healthcare Life Sciences) and blocked according to the manufacturer's instructions. Membranes were incubated overnight at 4° C. with the following dilutions of primary antibodies: rabbit anti-cleaved caspase-3 (1:500), rabbit anti-caspase-9 (1:1000), rabbit anti-phospho-AMPK (1:1000), and rabbit anti-AMPK (1:1,000) from Cell Signaling Technology, and mouse anti-GAPDH (1:10,000) from Life Technologies. Membranes were then incubated with secondary antibodies for 45 minutes at the following concentrations: donkey anti-mouse-horseradish peroxidase (1:5,000) and donkey anti-rabbit-horseradish peroxidase (1:7,000) from Jackson Immunoresearch Laboratories, Inc., followed by detection using enhanced chemiluminescence.

H1 hESC colonies = experiment: Elimination of hESC colonies grown on human fibroblast feeders (alkaline phosphatase staining, brightfield); type: cell-based
[5] = Neutral red cell viability assay in hiPSC; type: cell-based, human; conditions: human, hiPSC (DF6-9-9T) cells; 72 hours after start of treatment; both confluent and sub-confluent cells; 2.5 μM; read-out: viable cells remaining
Description: (§1) Neutral red assays for cell viability were performed as previously described. In vitro cell death was determined using SYTOX® Green nucleic acid stain (Life Technologies). Briefly, cells were incubated in 5 μM SYTOX® Green for 30 minutes at 37° C. in a humidified cell incubator with 5% CO2. […] Imaging of cell viability was performed using Live/Dead® Viability/Cytotoxicity Kit, for mammalian cells (Life Technologies). Cells were stained for 20 minutes at room temperature with 4 μM Calcein AM to detect viable cells and 2 μM Ethidium Homodimer 1 to detect cells with compromised membranes. […] Imaging was performed with a Nikon Ti-U inverted microscope.

hiPSC (DF6-9-9T) = experiment: Neutral red cell viability assay in hiPSC; type: cell-based, human; conditions: for LD50: 24 hour pulse treatment, viability 72 hours after treatment initiation
Description: as §1

[6] = tested on: PAX6 positive neural progenitor cells; type: cell-based
From the text: (§2) Data expressed as mean+S.D. (n=4); p<0.05, **p<0.01, ***p<0.001. […] Data expressed as mean+S.D. (n=4), *p<0.05, **p<0.01, ***p<0.001.

sub-confluent hiPSC [7] = experiment: Cleaved caspase-3/7 fluorescence based assay; type: cell-based, human; conditions: after initiation of treatment; 2.5 μM STF-31, 30 μM WZB117
hiPSC = experiment: Nucleotide pool measurements (HPLC); type: cell-based, human
Description: Nucleotide Pool Measurements: ATP, ADP, AMP, and NAD^+ were extracted using perchloric acid precipitation and analyzed using HPLC, following a previously published method. ATP, ADP, AMP and NAD^+ peaks were measured for each sample, compared with the standards, and normalized to protein levels.

ARPE-19 = experiment: Viability and morphology of retinal pigmented epithelial cells; type: cell-based
From the text: as §2

[8] = 5 μM 24 hour pulse, 72 hours after treatment initiation
[9] = short term treatment (24 hours), 2.5 μM

CC(C)(C)c1ccc(S(=O)(=O)NCc2ccc(C(=O)Nc3cccnc3)cc2)cc1 [STF-31, 4-[[[[4-(1,1-Dimethylethyl)phenyl]sulfonyl]amino]methyl]-N-3-pyridinyl-benzamide]
morphology of hiPSC ([1]; 2.5 μM STF-31, 24 hour incubation): did not modify the morphology
morphology of hiPSC ([1]; 2.5 μM STF-31, 48 hour treatment): patches of diminished, non-adherent cells and reduction in overall cell number
morphology of hiPSC ([1]; 72 hours, 2.5 μM STF-31, 30 μM WZB117, 20 μM PluriSIn): highly toxic
expression of cardiac genes (q-PCR) ([2]; 5 μM 24 hour pulse, 24-72 hours after initiation): not significantly altered
abundance of cardiac markers TNNI3 and IRX4 (flow cytometry) [2, 8]: did not affect abundance
structural organization of TNNT2 [2, 8]: maintained comparable structural organization
cardiomyocyte spontaneous contractility ([2]; 5 μM for 24 hours, day 10 cardiomyocytes): did not affect cardiomyocyte spontaneous contractility
contractions, protein and mRNA levels of cardiomyocyte markers, structural features compared with controls ([2]; treated on day 5 and day 10 of differentiation): indistinguishable from controls
reduction of fibroblast viability (human fibroblasts): 30%
first time point with decrease in glucose uptake (sub-confluent hiPSC [3]; 2.5 μM STF-31): 18 h
decrease in glucose uptake (sub-confluent hiPSC [3]; 1 hour of treatment, 2.5 μM STF-31, 30 μM WZB117): did not alter glucose uptake
time at which cleaved caspase-3 and -9 are observed (sub-confluent hiPSC [4]): significantly later
time at which p-AMPK is detected/increased (sub-confluent hiPSC [4]; post-treatment): 24 h
colonies by alkaline phosphatase staining (H1 hESC colonies; after 96 hours of treatment, 2.5 μM): Colonies were not detected
time at which toxicity occurs (H1 hESC colonies; hESC colonies on human fibroblast feeder cells, 2.5 μM): 48 to 72 h
colony growth after passaging (H1 hESC colonies; passaged 96 hours after treatment initiation, cultured additional 72 hours): No colony growth or alkaline phosphatase activity was detected
viability at 72 h, 2.5 μM [5]: < 2%
LD50 (hiPSC (DF6-9-9T); confluent hiPSC): 1.78 µM
LD50 (hiPSC (DF6-9-9T); sub-confluent hiPSC): 1.35 µM
effect of increasing concentration on time of significant toxicity (hiPSC (DF6-9-9T); concentrations up to 100 μM, neutral red): did not accelerate the time
median lethal dose (LD50) (hiPSC (DF6-9-9T); confluent hiPSC, 48 hours after continuous treatment, neutral red): 182 nM
minimal treatment time to achieve complete toxicity of hPSC (hiPSC (DF6-9-9T); data not shown): 24 h
viability (MTT) and immunofluorescence compared with controls ([6]; 2.5 μM for 72 hours, day 10 and day 12 progenitors): indistinguishable from controls
toxicity [6, 9]: does not result in significant toxicity
time of induction of caspase-3/7 activity (sub-confluent hiPSC [7]): 24 h
time until ATP levels decrease (hiPSC; 2.5 μM STF-31): 18 h
NAD+ levels (hiPSC; 2.5 μM STF-31, by 3 hours): −50%
NAD+ levels (hiPSC; 2.5 μM STF-31, by 18 hours): < 1%
ARPE cell morphology or viability (ARPE-19; 2.5 μM for up to 72 hours): no adverse effects
toxicity (ARPE-19; [9]): does not result in significant toxicity
cell viability (ARPE-19; treatment time extended to 72 hours, data not shown): did not result in a decrease in cell viability
